Experimental data as given in PubChem BioAssay AID1918998 (Molecular Pharmacology Branch, DTP, NCI, 2023).
Each block holds one compound with its values, some of them ahead of it.

Tested on: 521955-158-R2-J5-PDC complex spheroid growth
Experiment: Anticancer human tumor 521955-158-R2-J5-PDC patient-derived pancreatic carcinoma cell line growth inhibition [AhR]
Details: for IC50: curve of first compound; for viability, T/C: stronger effect = lower value
In short: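 Spheroids combined tumor cells with HUVEC endothelial cells and human MSCs as stroma. AhR antagonists were paired with standard or investigational drugs, each dosed in half-log steps down from near clinical Cmax, or from 10 microM where Cmax was unknown.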

[1] = second compound 0.1 µM, first compound 0.0316 µM
[2] = second compound 0.1 µM, first compound 0.1 µM
[3] = second compound 0.1 µM, first compound 0.316 µM
[4] = second compound 0.1 µM, first compound 1 µM
[5] = second compound 0.1 µM, first compound 3.16 µM
[6] = second compound 0.1 µM, first compound 10 µM
[7] = second compound 0.316 µM, first compound 0.0316 µM
[8] = second compound 0.316 µM, first compound 0.1 µM
[9] = second compound 0.316 µM, first compound 0.316 µM
[10] = second compound 0.316 µM, first compound 1 µM
[11] = second compound 0.316 µM, first compound 3.16 µM
[12] = second compound 0.316 µM, first compound 10 µM
[13] = second compound 1 µM, first compound 0.0316 µM
[14] = second compound 1 µM, first compound 0.1 µM
[15] = second compound 1 µM, first compound 0.316 µM
[16] = second compound 1 µM, first compound 1 µM
[17] = second compound 1 µM, first compound 3.16 µM
[18] = second compound 1 µM, first compound 10 µM
[19] = second compound 3.16 µM, first compound 0.0316 µM
[20] = second compound 3.16 µM, first compound 0.1 µM
[21] = second compound 3.16 µM, first compound 0.316 µM
[22] = second compound 3.16 µM, first compound 1 µM
[23] = second compound 3.16 µM, first compound 3.16 µM
[24] = second compound 3.16 µM, first compound 10 µM
[25] = second compound 10 µM, first compound 0.0316 µM
[26] = second compound 10 µM, first compound 0.1 µM
[27] = second compound 10 µM, first compound 0.316 µM
[28] = second compound 10 µM, first compound 1 µM
[29] = second compound 10 µM, first compound 3.16 µM
[30] = second compound 10 µM, first compound 10 µM
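Throughout, for viability, T/C: spheroids mix tumor cells with HUVEC endothelium and human MSC stroma; luminescence taken as viability surrogate after a week of drug exposure.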

Compound: COc1cc(Nc2ncc3c(n2)-c2ccc(Cl)cc2C(c2c(F)cccc2OC)=NC3)ccc1C(=O)O + Cc1cncc(-c2nc(NCCc3c[nH]c4ccccc34)c3ncn(C(C)C)c3n2)c1
- IC50 (second compound 0.1 µM): > 10 µM
- IC50 (second compound 0.316 µM): > 10 µM
- IC50 (second compound 1 µM): > 10 µM
- IC50 (second compound 3.16 µM): > 10 µM
- IC50 (second compound 10 µM): > 10 µM
- viability, T/C [1]: 100%
- viability, T/C [2]: 78.8%
- viability, T/C [3]: 78.8%
- viability, T/C [4]: 72.3%
- viability, T/C [5]: 80.1%
- viability, T/C [6]: 74.2%
- viability, T/C [7]: 99.7%
- viability, T/C [8]: 79.9%
- viability, T/C [9]: 87.1%
- viability, T/C [10]: 73.1%
- viability, T/C [11]: 68%
- viability, T/C [12]: 60.9%
- viability, T/C [13]: 109%
- viability, T/C [14]: 88.5%
- viability, T/C [15]: 103%
- viability, T/C [16]: 83.2%
- viability, T/C [17]: 70.7%
- viability, T/C [18]: 70.4%
- viability, T/C [19]: 127%
- viability, T/C [20]: 107%
- viability, T/C [21]: 97.5%
- viability, T/C [22]: 90.8%
- viability, T/C [23]: 83%
- viability, T/C [24]: 76.7%
- viability, T/C [25]: 125%
- viability, T/C [26]: 88.4%
- viability, T/C [27]: 76.2%
- viability, T/C [28]: 84.3%
- viability, T/C [29]: 62.8%
- viability, T/C [30]: 81.3%

Compound: Cn1ncnc1C1c2n[nH]c(=O)c3cc(F)cc(c23)NC1c1ccc(F)cc1 (stereo not given) + Cc1cncc(-c2nc(NCCc3c[nH]c4ccccc34)c3ncn(C(C)C)c3n2)c1
- IC50 (second compound 0.1 µM): > 0.1 µM
- IC50 (second compound 0.316 µM): > 0.1 µM
- IC50 (second compound 1 µM): > 0.1 µM
- IC50 (second compound 3.16 µM): > 0.1 µM
- IC50 (second compound 10 µM): > 0.1 µM
- viability, T/C (second compound 0.1 µM, first compound 0.000316 µM): 114%
- viability, T/C (second compound 0.1 µM, first compound 0.001 µM): 106%
- viability, T/C (second compound 0.1 µM, first compound 0.00316 µM): 94.6%
- viability, T/C (second compound 0.1 µM, first compound 0.01 µM): 109%
- viability, T/C [1]: 93%
- viability, T/C [2]: 83%
- viability, T/C (second compound 0.316 µM, first compound 0.000316 µM): 105%
- viability, T/C (second compound 0.316 µM, first compound 0.001 µM): 121%
- viability, T/C (second compound 0.316 µM, first compound 0.00316 µM): 93.3%
- viability, T/C (second compound 0.316 µM, first compound 0.01 µM): 110%
- viability, T/C [7]: 87.6%
- viability, T/C [8]: 101%
- viability, T/C (second compound 1 µM, first compound 0.000316 µM): 122%
- viability, T/C (second compound 1 µM, first compound 0.001 µM): 117%
- viability, T/C (second compound 1 µM, first compound 0.00316 µM): 116%
- viability, T/C (second compound 1 µM, first compound 0.01 µM): 127%
- viability, T/C [13]: 116%
- viability, T/C [14]: 99.5%
- viability, T/C (second compound 3.16 µM, first compound 0.000316 µM): 114%
- viability, T/C (second compound 3.16 µM, first compound 0.001 µM): 142%
- viability, T/C (second compound 3.16 µM, first compound 0.00316 µM): 115%
- viability, T/C (second compound 3.16 µM, first compound 0.01 µM): 119%
- viability, T/C [19]: 122%
- viability, T/C [20]: 107%
- viability, T/C (second compound 10 µM, first compound 0.000316 µM): 134%
- viability, T/C (second compound 10 µM, first compound 0.001 µM): 143%
- viability, T/C (second compound 10 µM, first compound 0.00316 µM): 106%
- viability, T/C (second compound 10 µM, first compound 0.01 µM): 105%
- viability, T/C [25]: 111%
- viability, T/C [26]: 104%

Compound: O=C(C=Cc1cccc(S(=O)(=O)Nc2ccccc2)c1)NO + Cc1cncc(-c2nc(NCCc3c[nH]c4ccccc34)c3ncn(C(C)C)c3n2)c1
- IC50 (second compound 0.1 µM): 5.89 µM
- IC50 (second compound 0.316 µM): 6.86 µM
- IC50 (second compound 1 µM): > 10 µM
- IC50 (second compound 3.16 µM): 6.64 µM
- IC50 (second compound 10 µM): 1.73 µM
- viability, T/C [1]: 119%
- viability, T/C [2]: 115%
- viability, T/C [3]: 138%
- viability, T/C [4]: 93.6%
- viability, T/C [5]: 63.7%
- viability, T/C [6]: 39.8%
- viability, T/C [7]: 131%
- viability, T/C [8]: 129%
- viability, T/C [9]: 125%
- viability, T/C [10]: 101%
- viability, T/C [11]: 66.5%
- viability, T/C [12]: 42%
- viability, T/C [13]: 146%
- viability, T/C [14]: 132%
- viability, T/C [15]: 137%
- viability, T/C [16]: 108%
- viability, T/C [17]: 73.6%
- viability, T/C [18]: 51.4%
- viability, T/C [19]: 135%
- viability, T/C [20]: 143%
- viability, T/C [21]: 147%
- viability, T/C [22]: 106%
- viability, T/C [23]: 61.3%
- viability, T/C [24]: 43.5%
- viability, T/C [25]: 151%
- viability, T/C [26]: 112%
- viability, T/C [27]: 108%
- viability, T/C [28]: 69.2%
- viability, T/C [29]: 25.2%
- viability, T/C [30]: 5.33%

Continued by falling IC50 (second compound 0.1 µM), values first:

- IC50 (second compound 0.1 µM): 0.968 µM
- IC50 (second compound 0.316 µM): 1.17 µM
- IC50 (second compound 1 µM): 1.25 µM
- IC50 (second compound 3.16 µM): 1.24 µM
- IC50 (second compound 10 µM): 0.0683 µM
Compound: NS(=O)(=O)OCC1CC(n2ccc3c(NC4CCc5ccccc54)ncnc32)CC1O (stereo not given) + Cc1cncc(-c2nc(NCCc3c[nH]c4ccccc34)c3ncn(C(C)C)c3n2)c1
- viability, T/C [1]: 106%
- viability, T/C [2]: 103%
- viability, T/C [3]: 80.1%
- viability, T/C [4]: 47.9%
- viability, T/C [5]: 40.1%
- viability, T/C [6]: 30.1%
- viability, T/C [7]: 105%
- viability, T/C [8]: 102%
- viability, T/C [9]: 78.5%
- viability, T/C [10]: 53.4%
- viability, T/C [11]: 35.6%
- viability, T/C [12]: 30.4%
- viability, T/C [13]: 115%
- viability, T/C [14]: 105%
- viability, T/C [15]: 83.7%
- viability, T/C [16]: 52.1%
- viability, T/C [17]: 38%
- viability, T/C [18]: 32.1%
- viability, T/C [19]: 99.4%
- viability, T/C [20]: 102%
- viability, T/C [21]: 75.2%
- viability, T/C [22]: 52.6%
- viability, T/C [23]: 45%
- viability, T/C [24]: 35.2%
- viability, T/C [25]: 65.5%
- viability, T/C [26]: 40.6%
- viability, T/C [27]: 34.4%
- viability, T/C [28]: 32.7%
- viability, T/C [29]: 28.7%
- viability, T/C [30]: 23.9%

- IC50 (second compound 0.1 µM): 0.0165 µM
- IC50 (second compound 0.316 µM): 0.0167 µM
- IC50 (second compound 1 µM): 0.0168 µM
- IC50 (second compound 3.16 µM): 0.0151 µM
- IC50 (second compound 10 µM): 0.00644 µM
Compound: CC(C)CC(NC(=O)C(Cc1ccccc1)NC(=O)c1cnccn1)B(O)O (stereo not given) + Cc1cncc(-c2nc(NCCc3c[nH]c4ccccc34)c3ncn(C(C)C)c3n2)c1
- viability, T/C (second compound 0.1 µM, first compound 0.000949 µM): 103%
- viability, T/C (second compound 0.1 µM, first compound 0.003 µM): 103%
- viability, T/C (second compound 0.1 µM, first compound 0.00949 µM): 91.8%
- viability, T/C (second compound 0.1 µM, first compound 0.03 µM): 4.93%
- viability, T/C (second compound 0.1 µM, first compound 0.0949 µM): 0.17%
- viability, T/C (second compound 0.1 µM, first compound 0.3 µM): 0.27%
- viability, T/C (second compound 0.316 µM, first compound 0.000949 µM): 118%
- viability, T/C (second compound 0.316 µM, first compound 0.003 µM): 92.1%
- viability, T/C (second compound 0.316 µM, first compound 0.00949 µM): 97.5%
- viability, T/C (second compound 0.316 µM, first compound 0.03 µM): 0.39%
- viability, T/C (second compound 0.316 µM, first compound 0.0949 µM): 0.25%
- viability, T/C (second compound 0.316 µM, first compound 0.3 µM): 0.21%
- viability, T/C (second compound 1 µM, first compound 0.000949 µM): 107%
- viability, T/C (second compound 1 µM, first compound 0.003 µM): 128%
- viability, T/C (second compound 1 µM, first compound 0.00949 µM): 98.2%
- viability, T/C (second compound 1 µM, first compound 0.03 µM): 1.49%
- viability, T/C (second compound 1 µM, first compound 0.0949 µM): 2.14%
- viability, T/C (second compound 1 µM, first compound 0.3 µM): 0.89%
- viability, T/C (second compound 3.16 µM, first compound 0.000949 µM): 141%
- viability, T/C (second compound 3.16 µM, first compound 0.003 µM): 127%
- viability, T/C (second compound 3.16 µM, first compound 0.00949 µM): 81.7%
- viability, T/C (second compound 3.16 µM, first compound 0.03 µM): 0.28%
- viability, T/C (second compound 3.16 µM, first compound 0.0949 µM): 2.97%
- viability, T/C (second compound 3.16 µM, first compound 0.3 µM): 2.29%
- viability, T/C (second compound 10 µM, first compound 0.000949 µM): 144%
- viability, T/C (second compound 10 µM, first compound 0.003 µM): 126%
- viability, T/C (second compound 10 µM, first compound 0.00949 µM): 11.6%
- viability, T/C (second compound 10 µM, first compound 0.03 µM): 0.28%
- viability, T/C (second compound 10 µM, first compound 0.0949 µM): 2.54%
- viability, T/C (second compound 10 µM, first compound 0.3 µM): 0.26%
